This assay addresses T1, full-length human BTK (Homo sapiens, UniProt Q06187).
T1 construct: 2.5× stocks of full-length human BTK (08-080) from CarnaBio USA, Inc; purchased CarnaBio USA, Inc., Natick, Mass; 08-080
Nature of the assay: BTK IC50 Enzyme Assay (Assay A), microfluidic off-chip mobility shift kinase assay. It is filed as biochemical. As to conditions: kinKDR peptide substrate, 90 min at 27° C. The method, then:
BTK IC50 Enzyme Assay (Assay A)
The following describes a microfluidic, off-chip mobility shift kinase assay used to measure inherent potency of compounds against BTK enzyme.
2.5× stocks of full-length human BTK (08-080) from CarnaBio USA, Inc., Natick, Mass., 1.6×ATP and appropriate kinKDR peptide substrate (FITC-AHA-EEPLYWSFPAKKK10 NH2) were prepared in kinase reaction buffer consisting of 25 mM MgCl2, 0.015% Brij-35 (30%), 100 mM Hepes, pH 7.5, and 10 mM DTT.
5 uL of enzyme buffer and 7.5 uL of ATP/kinKDR peptide substrate mix were added to Matrix (#115304) 384-well, sterile, polypropylene plates (Thermo Fisher Scientific, 15 Hudson, N.H.) with 125 nL of serially diluted compounds prepared in 100% DMSO, and incubated for 90 min. at 27° C. Following the incubation period, reactions were stopped by adding 60 uL stop buffer consisting of 100 mM Hepes, pH 7.5, 0.015% Brij-35 (30%), 0.277% Coating Reagent #3 (Caliper Life Sciences, Mountain View, Calif.), 5% DMSO. Stopped reactions were monitored at −2 PSI, −3000 V/−700 V in a LabChip 3000 plate 20 reader from Caliper Life Sciences, a PerkinElmer Company (Hopkinton, Mass.), and the activity was measured by off-chip mobility shift assay measuring the charge/mass difference between substrate and product resulting from peptide phosphorilation. IC50 and efficacy were determined by plotting log [Inhibitor] vs. % Activity in GeneData Screener (Basel, Switzerland).

Data on 30 compounds can be found in patent US9738648B2, “Pyridines, pyrimidines, and pyrazines, as BTK inhibitors and uses thereof” (Merck Patent GmbH, priority 2013, dated 2017).

Some results are limits rather than exact numbers.

T1 sequence (Q06187 whole entry): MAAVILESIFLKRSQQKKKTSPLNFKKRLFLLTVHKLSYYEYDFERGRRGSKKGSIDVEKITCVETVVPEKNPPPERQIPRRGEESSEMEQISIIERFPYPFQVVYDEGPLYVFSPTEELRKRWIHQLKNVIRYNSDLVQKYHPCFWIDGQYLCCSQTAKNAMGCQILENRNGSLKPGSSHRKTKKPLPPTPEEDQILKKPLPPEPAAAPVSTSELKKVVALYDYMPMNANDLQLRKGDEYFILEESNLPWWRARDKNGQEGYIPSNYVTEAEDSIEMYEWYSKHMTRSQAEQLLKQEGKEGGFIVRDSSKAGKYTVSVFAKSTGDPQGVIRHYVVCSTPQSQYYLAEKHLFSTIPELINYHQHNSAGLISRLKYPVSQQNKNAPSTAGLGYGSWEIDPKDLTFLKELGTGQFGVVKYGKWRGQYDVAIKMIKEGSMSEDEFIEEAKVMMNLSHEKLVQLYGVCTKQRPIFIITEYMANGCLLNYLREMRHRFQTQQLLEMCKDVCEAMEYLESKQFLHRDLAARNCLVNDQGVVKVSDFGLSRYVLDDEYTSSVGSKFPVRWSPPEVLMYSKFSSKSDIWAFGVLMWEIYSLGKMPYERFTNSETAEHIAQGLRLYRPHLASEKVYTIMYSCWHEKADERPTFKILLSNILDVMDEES

For orientation: IC50 means the midpoint of a concentration-inhibition curve. On to `CN(C)C/C=C/C(=O)N1CC[C@H](n2ccc3ncnc(Oc4ccc(Oc5ccccc5)cc4)c32)C1` [Compound 18, (S,E)-4-(dimethylamino)-1-(3-(4-(4-phenoxyphenoxy)-5H-pyrrolo[3,2-d]pyrimidin-5-yl)pyrrolidin-1-yl)but-2-en-1-one], for which the IC50 is less than 100 nM.

In the case of `CN(C)C/C=C/C(=O)N1CC(n2ccc3ncnc(Oc4ccc(Oc5ccccc5)cc4)c32)C1` [Compound 19, (E)-4-(dimethylamino)-1-(3-(4-(4-phenoxyphenoxy)-5H-pyrrolo[3,2-d]pyrimidin-5-yl)azetidin-1-yl)but-2-en-1-one], the IC50 is less than 100 nM.

As for `C=CC(=O)N1CC(Cn2ccc3ncnc(Oc4ccc(Oc5ccccc5)cc4)c32)C1` [Compound 20, 1-(3-((4-(4-phenoxyphenoxy)-5H-pyrrolo[3,2-d]pyrimidin-5-yl)methyl)azetidin-1-yl)prop-2-en-1-one], the IC50 was less than 100 nM.

Take `C=CC(=O)N[C@H]1C[C@H](n2ncc3ncnc(Oc4ccc(Oc5ccccc5)cc4)c32)C1` [Compound 21, N-((1r,3r)-3-(7-(4-phenoxyphenoxy)-1H-pyrazolo[4,3-d]pyrimidin-1-yl)cyclobutyl)acrylamide]: the IC50 was less than 100 nM.

On to `C=CC(=O)N1CC(n2ccc3ncnc(Oc4ccc(Nc5ccccc5)cc4)c32)C1` [Compound 22, 1-(3-(4-(4-(phenylamino)phenoxy)-5H-pyrrolo[3,2-d]pyrimidin-5-yl)azetidin-1-yl)prop-2-en-1-one], for which the half-maximal inhibitory concentration (IC50) is less than 100 nM.

On to `C=CC(=O)N1CC(n2ncc3ncc(-c4ccc(Oc5ccccc5)cc4)nc32)C1` [Compound 23, 1-(3-(6-(4-phenoxyphenyl)-1H-pyrazolo[3,4-b]pyrazin-1-yl)azetidin-1-yl)prop-2-en-1-one], for which the concentration for half-maximal inhibition (IC50) was less than 100 nM.

In the case of `CN(C)C/C=C/C(=O)N1CC(n2ccc3ncc(-c4ccc(Oc5ccccc5)cc4)nc32)C1` [Compound 24, (E)-4-(dimethylamino)-1-(3-(3-(4-phenoxyphenyl)-5H-pyrrolo[2,3-b]pyrazin-5-yl)azetidin-1-yl)but-2-en-1-one], the half-maximal inhibitory concentration (IC50) was less than 100 nM.

For `C=CC(=O)N1CC[C@H]1Cn1ccc2ncnc(Oc3ccc(Oc4ccccc4)cc3)c21` [Compound 25, (S)-1-(2-((4-(4-phenoxyphenoxy)-5H-pyrrolo[3,2-d]pyrimidin-5-yl)methyl)azetidin-1-yl)prop-2-en-1-one], the half-maximal inhibitory concentration (IC50) is less than 100 nM.

For `C=CC(=O)NCCCn1ccc2ncnc(Oc3ccc(Oc4ccccc4)cc3)c21` [Compound 26, N-(3-(4-(4-phenoxyphenoxy)-5H-pyrrolo[3,2-d]pyrimidin-5-yl)propyl)acrylamide], the IC50 was less than 100 nM.

Regarding `C=CC(=O)N1CC(n2ccc3ncnc(Oc4ccc(Oc5ccc(F)cc5)cc4)c32)C1` [Compound 27, 1-(3-(4-(4-(4-fluorophenoxy)phenoxy)-5H-pyrrolo[3,2-d]pyrimidin-5-yl)azetidin-1-yl)prop-2-en-1-one], the IC50 was less than 100 nM.

For the compound `C=CC(=O)N1CC2(CC(n3ccc4ncnc(Oc5ccc(Oc6ccccc6)cc5)c43)C2)C1` [Compound 28, 1-(6-(4-(4-phenoxyphenoxy)-5H-pyrrolo[3,2-d]pyrimidin-5-yl)-2-azaspiro[3.3]heptan-2-yl)prop-2-en-1-one], the IC50 is less than 100 nM.

For `C=CC(=O)N1CCC(Cn2ccc3ncnc(Oc4ccc(Oc5ccccc5)cc4)c32)C1` (stereo not drawn) [Compound 29, 1-(3-((4-(4-phenoxyphenoxy)-5H-pyrrolo[3,2-d]pyrimidin-5-yl)methyl)pyrrolidin-1-yl)prop-2-en-1-one], the half-maximal inhibitory concentration (IC50) is less than 100 nM.

`CN(C)C/C=C/C(=O)N1CCCC(Cn2ccc3ncnc(Oc4ccc(Oc5ccccc5)cc4)c32)C1` (stereo not drawn) [Compound 30, (E)-4-(dimethylamino)-1-(3-((4-(4-phenoxyphenoxy)-5H-pyrrolo[3,2-d]pyrimidin-5-yl)methyl)piperidin-1-yl)but-2-en-1-one]: the half-inhibitory concentration (IC50) was less than 100 nM.

With `CC1=CC(C)=[N+]2C1=Cc1ccc(CCC(=O)NCCN3CCN(C/C=C/C(=O)N4CC(n5ccc6ncnc(Oc7ccc(Oc8ccccc8)cc7)c65)C4)CC3)n1[B-]2(F)F` [Compound 32, (E)-5,5-difluoro-1,3-dimethyl-7-(3-oxo-3-((2-(4-(4-oxo-4-(3-(4-(4-phenoxyphenoxy)-5H-pyrrolo[3,2-d]pyrimidin-5-yl)azetidin-1-yl)but-2-en-1-yl)piperazin-1-yl)ethyl)amino)propyl)-5H-dipyrrolo[1,2-c:2′,1′-f][1,3,2]diazaborinin-4-ium-5-uide], the IC50 was 100 to 1000 nM.

`CN(C)C/C=C/C(=O)N[C@H]1C[C@H](n2ccc3ncnc(Oc4ccc(Oc5ccccc5)cc4)c32)C1` [Compound 33, (E)-4-(dimethylamino)-N-(trans-3-(4-(4-phenoxyphenoxy)-5H-pyrrolo[3,2-d]pyrimidin-5-yl)cyclobutyl)but-2-enamide]: the concentration for half-maximal inhibition (IC50) lay within 100 to 1000 nM.

As to `C=CC(=O)N1CC[C@@H](n2ccc3ncnc(Oc4ccc(Oc5ccccc5)cc4)c32)C1` [Compound 34, (R)-1-(3-(4-(4-phenoxyphenoxy)-5H-pyrrolo[3,2-d]pyrimidin-5-yl)pyrrolidin-1-yl)prop-2-en-1-one], the IC50 was in the range of 100 to 1000 nM.

In the case of `C=CC(=O)N1CC(n2ccc3ncnc(Oc4ccc(NC(=O)c5ccccc5)cc4)c32)C1` [Compound 35, N-(4-((5-(1-acryloylazetidin-3-yl)-5H-pyrrolo[3,2-d]pyrimidin-4-yl)oxy)phenyl)benzamide], the concentration for half-maximal inhibition (IC50) is 100 to 1000 nM.

In the case of `CN(C)C/C=C/C(=O)N[C@H]1C[C@@H](n2ncc3ncnc(Oc4ccc(Oc5ccccc5)cc4)c32)C1` [Compound 36, (E)-4-(dimethylamino)-N-((1s,3s)-3-(7-(4-phenoxyphenoxy)-1H-pyrazolo[4,3-d]pyrimidin-1-yl)cyclobutyl)but-2-enamide], the concentration for half-maximal inhibition (IC50) is 100 to 1000 nM.

For the compound `C=CC(=O)N1CCC(Cn2ccc3ncnc(Oc4ccc(Oc5ccccc5)cc4)c32)CC1` [Compound 37, 1-(4-((4-(4-phenoxyphenoxy)-5H-pyrrolo[3,2-d]pyrimidin-5-yl)methyl)piperidin-1-yl)prop-2-en-1-one], the 50% inhibitory concentration (IC50) lay in the range of 100 to 1000 nM.

In the case of `C/C=C/C(=O)N1CC(n2ccc3ncnc(Oc4ccc(Oc5ccccc5)cc4)c32)C1` [Compound 38, (E)-1-(3-(4-(4-phenoxyphenoxy)-5H-pyrrolo[3,2-d]pyrimidin-5-yl)azetidin-1-yl)but-2-en-1-one], the concentration for half-maximal inhibition (IC50) lay within 100 to 1000 nM.

As for `C=CC(=O)N[C@H]1CC[C@H](n2ccc3ncnc(Oc4ccc(Oc5ccccc5)cc4)c32)CC1` [Compound 39, N-(trans-4-(4-(4-phenoxyphenoxy)-5H-pyrrolo[3,2-d]pyrimidin-5-yl)cyclohexyl)acrylamide], the half-maximal inhibitory concentration (IC50) fell in the range of 100 to 1000 nM.

On to `C=CC(=O)N1CCC(Cn2ccc3ncnc(-c4cccc(Oc5ccccc5)c4)c32)C1` (stereo not drawn) [Compound 40, 1-(3-((4-(3-phenoxyphenyl)-5H-pyrrolo[3,2-d]pyrimidin-5-yl)methyl)pyrrolidin-1-yl)prop-2-en-1-one], for which the IC50 lay within 100 to 1000 nM.

As for `CN(C)C/C=C/C(=O)N[C@H]1C[C@H](n2ncc3ncnc(Oc4ccc(Oc5ccccc5)cc4)c32)C1` [Compound 41, (E)-4-(dimethylamino)-N-((1r,3r)-3-(7-(4-phenoxyphenoxy)-1H-pyrazolo[4,3-d]pyrimidin-1-yl)cyclobutyl)but-2-enamide], the 50% inhibitory concentration (IC50) lay in the range of 100 to 1000 nM.

As for `C=CC(=O)NCCn1ccc2ncnc(Oc3ccc(Oc4ccccc4)cc3)c21` [Compound 42, N-(2-(4-(4-phenoxyphenoxy)-5H-pyrrolo[3,2-d]pyrimidin-5-yl)ethyl)acrylamide], the half-maximal inhibitory concentration (IC50) fell in the range of 1000 to 5000 nM.

On to `C=CC(=O)N1CC(n2ccc3ncnc(Oc4cnn(Cc5ccccc5)c4)c32)C1` [Compound 43, 1-(3-(4-((1-benzyl-1H-pyrazol-4-yl)oxy)-5H-pyrrolo[3,2-d]pyrimidin-5-yl)azetidin-1-yl)prop-2-en-1-one], for which the IC50 was in the range of 1000 to 5000 nM.

Take `C=CC(=O)N1CCCC(Cn2ccc3ncnc(-c4cccc(Oc5ccccc5)c4)c32)C1` (stereo not drawn) [Compound 44, 1-(3-((4-(3-phenoxyphenyl)-5H-pyrrolo[3,2-d]pyrimidin-5-yl)methyl)piperidin-1-yl)prop-2-en-1-one]: the IC50 was 1000 to 5000 nM.

On to `C=CC(=O)N1CCC(Cn2ccc3ncnc(-c4cccc(Oc5ccccc5)c4)c32)CC1` [Compound 45, 1-(4-((4-(3-phenoxyphenyl)-5H-pyrrolo[3,2-d]pyrimidin-5-yl)methyl)piperidin-1-yl)prop-2-en-1-one], for which the concentration for half-maximal inhibition (IC50) lay in the range of 1000 to 5000 nM.

As to `C=CC(=O)N1CCC(Cn2ccc3ncnc(-c4ccc(Oc5ccccc5)cc4)c32)C1` (stereo not drawn) [Compound 46, 1-(3-((4-(4-phenoxyphenyl)-5H-pyrrolo[3,2-d]pyrimidin-5-yl)methyl)pyrrolidin-1-yl)prop-2-en-1-one], the IC50 was in the range of 1000 to 5000 nM.

`C=CC(=O)N1CCC(Cn2ccc3ncnc(-c4ccc(Oc5ccccc5)cc4)c32)CC1` [Compound 47, 1-(4-((4-(4-phenoxyphenyl)-5H-pyrrolo[3,2-d]pyrimidin-5-yl)methyl)piperidin-1-yl)prop-2-en-1-one]: the IC50 is more than 5000 nM.

Consider `C=CC(=O)N1CCCC(Cn2ccc3ncnc(-c4ccc(Oc5ccccc5)cc4)c32)C1` (stereo not drawn) [Compound 48, 1-(3-((4-(4-phenoxyphenyl)-5H-pyrrolo[3,2-d]pyrimidin-5-yl)methyl)piperidin-1-yl)prop-2-en-1-one], for which the IC50 is more than 5000 nM.
